Target: T1, JerF (Sorangium cellulosum, UniProt A1YBT9)
T1 construct: codon-optimised full-length gene in pCOLD-I, N-terminal His6 tag, expressed in E. coli BL21 (DE3), cell-free extract (not purified)
Test: HPLC-MS of O-methylated product after bioconversion with cell-free extract
Assay type: biochemical
Conditions: 5 mM MgCl2, 0.25 mM substrate

T1 sequence (A1YBT9 entry or part of it): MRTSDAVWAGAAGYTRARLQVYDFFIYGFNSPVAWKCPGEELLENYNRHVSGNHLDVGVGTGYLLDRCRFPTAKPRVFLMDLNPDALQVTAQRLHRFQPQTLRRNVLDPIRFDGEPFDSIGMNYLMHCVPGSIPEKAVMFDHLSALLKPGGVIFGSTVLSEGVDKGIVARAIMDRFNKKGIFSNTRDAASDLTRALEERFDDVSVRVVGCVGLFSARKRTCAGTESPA

## CC(C)/C=C/C1CC(=O)C(C)C(=O)O1 (racemic) [rac-14e, (E)-3-Methyl-6-(3-methylbut-1-en-1-yl)dihydro-2H-pyran-2,4(3H)-dione]
SAM tosylate 4.18 mM, 25 mM HEPES, pH 7.5, 28 °C, 20 h
  HPLC-MS of O-methylated product after bioconversion with cell-free extract: Full conversion was reproducibly obtained for compounds rac-14b, rac-14c, rac-14e and rac-14f

## C/C=C/C1CC(=O)C(C)C(=O)O1 (racemic) [rac-14d, (E)-3-Methyl-6-(prop-1-en-1-yl)dihydro-2H-pyran-2,4(3H)-dione]
SAM tosylate 0.97 mM, 40 mM Tris HCl, pH 8.8, 28 °C, 16 h, empty-vector and heat-denatured lysate controls run
  HPLC-MS of O-methylated product after bioconversion with cell-free extract: rac-14d was almost completely converted into the respective O-methylated product mixture rac-15d

From PMC6273487, “Characterisation of the Broadly-Specific O-Methyl-transferase JerF from the Late Stages of Jerangolid Biosynthesis” (Molecules, 2016)
